Experimental data reported in ChEMBL document CHEMBL5550202, “Rationally Designed Highly Potent NKT Cell Agonists with Different Cytokine Selectivity through Hydrogen-Bond Interaction” (J Med Chem, 2024).
Activity calls are given as the source filed them. The calls are words filed in the database; no cut-off is given here.

Legend:
[1] = system: Mus musculus; assay: Induction of Th1/2-balanced cytokine response in BALB/c mouse assessed as increase in IFN-gamma secretion in serum at 2.33 nmol, ip administered as single dose in liposomal formulation and measured after 24 hrs by ELISA; assay type: functional, organism-based
[2] = system: Mus musculus; assay: Induction of Th1/2-balanced cytokine response in BALB/c mouse assessed as increase in IFN-gamma/IL-4 secretion ratio at 0.5 ug, ip administered as single dose in liposomal formulation and measured after 24 hrs by ELISA; assay type: functional, organism-based; settings: dose 0.5 µg
[3] = system: B16-F10; assay: Antitumor activity against mouse B16-F10 cells implanted in C57BL/6 mouse assessed as inhibition of lung metastasis at 0.58 nmol, ip administered as single dose in liposomal formulation for 1 day followed by tumor inoculation and measured after 3 weeks by H and E staining based analysis relative to control; assay type: functional; settings: time 22 day
[4] = Induction of Th1-specific IFN-gamma secretion in C57BL/6 mouse splenocytes assessed as fold increase in IFN-gamma level in supernatant at 10 nM treated as liposomal formulation and measured after 72 hrs by ELISA relative to alpha-galactosylceramide; assay type: functional, Splenocyte
[5] = system: B16-F10; assay: Antitumor activity against mouse B16-F10 cells implanted in C57BL/6 mouse assessed as suppression of tumor progression at 0.58 nmol, ip administered as single dose in liposomal formulation for 1 day followed by tumor inoculation and measured after 3 weeks; assay type: functional, organism-based; settings: time 22.0 day
[6] = system: Mus musculus; assay: Induction of Th1/2-balanced cytokine response in BALB/c mouse assessed as increase in IL-4 secretion in serum at 0.5 ug, ip administered as single dose in liposomal formulation and measured after 24 hrs by ELISA; assay type: functional, organism-based; settings: dose 0.5 µg
[7] = system: Splenocyte; assay: (§1) Ex vivo induction of Natural killer T cell mediated dendritic cell activation in C57BL/6 mouse splenocytes assessed as increase in CD86 expression on CD11c-positive dendritic cells at 2.33 nmol, ip administered as single dose in liposomal formulation measured after 24 hrs by flow cytometry analysis (reference value: 8.9%); assay type: functional
[8] = system: Mus musculus; assay: Induction of Th1/2-balanced cytokine response in C57BL/6 mouse assessed as increase in IFN-gamma secretion in serum at 2.33 nmol, ip administered as single dose in liposomal formulation and measured for 48 hrs by ELISA; assay type: functional, organism-based
[9] = system: Splenocyte; assay: as §1, with “CD80” for “CD86”, “8.4%)” for “8.9%)”; assay type: functional
[10] = system: B16-F10; assay: Antitumor activity against mouse B16-F10 cells implanted in C57BL/6 mouse assessed as reduction in metastatic nodules in lung at 0.58 nmol, ip administered as single dose in liposomal formulation for 1 day followed by tumor inoculation and measured after 3 weeks; assay type: functional, organism-based; settings: time 22.0 day
[11] = system: Mus musculus; assay: Induction of Th1/2-balanced cytokine response in BALB/c mouse assessed as activation of immune cells by measuring increase in IL-12 release in serum at 2.33 nmol, ip administered as single dose in liposomal formulation and measured at 6 hrs by ELISA; assay type: functional, organism-based
[12] = Induction of Th1-specific IFN-gamma secretion in C57BL/6 mouse splenocytes assessed as fold increase in IFN-gamma level in supernatant at 1 nM treated as liposomal formulation and measured after 72 hrs by ELISA relative to alpha-galactosylceramide; assay type: functional, Splenocyte
[13] = system: Mus musculus; assay: Induction of Th1/2-balanced cytokine response in BALB/c mouse assessed as increase in IFN-gamma secretion in serum at 0.5 ug, ip administered as single dose in liposomal formulation and measured after 24 hrs by ELISA; assay type: functional, organism-based; settings: dose 0.5 µg
[14] = biological target: T1, Antigen-presenting glycoprotein CD1d (Mus musculus) (UniProt P11609+P11610); assay: Binding affinity to Cd1D in intact C57BL/6 mouse BMDC cells assessed as glycolipid/Cd1D complex formation by measuring strong staining of cell membrane at 100 nM treated as liposomal formulation and measured after 18 hrs by L363 mAb staining based confocal microscopic analysis
[15] = system: Splenocyte; assay: Induction of Th2-specific IL-4 secretion in C57BL/6 mouse splenocytes assessed as increase in IL-4 level in supernatant at 100 nM treated as liposomal formulation preincubated for 30 mins with anti-CD1d monoclonal antibody followed by compound addition and measured after 72 hrs by ELISA; assay type: functional, cell-based
[16] = biological target: T1, Antigen-presenting glycoprotein CD1d (Mus musculus); assay: Binding affinity to Cd1D in C57BL/6 mouse BMDC cells assessed as glycolipid presentation by measuring glycolipid/Cd1D complex formation at 100 nM treated as liposomal formulation and measured at 6 to 24 hrs by L363 cell surface staining based flow cytometry analysis; settings: time 6-24 hrs
[17] = biological target: T1, Antigen-presenting glycoprotein CD1d (Mus musculus); assay: Binding affinity to Cd1D in C57BL/6 mouse BMDC cells assessed as glycolipid presentation by measuring glycolipid/Cd1D complex formation at 100 nM treated as liposomal formulation preincubated for 12 hrs and cells further recultured without compound for 2 to 12 hrs by pulse-chase analysis; assay type: cell-based
[18] = system: Splenocyte; assay: Induction of Th1-specific IFN-gamma secretion in C57BL/6 mouse splenocytes assessed as increase in IFN-gamma level in supernatant at 100 nM treated as liposomal formulation preincubated for 30 mins with anti-CD1d monoclonal antibody followed by compound addition and measured after 72 hrs by ELISA; assay type: functional, cell-based
[19] = system: Mus musculus; assay: Induction of Th1/2-balanced cytokine response in C57BL/6 mouse assessed as increase in IL-4 secretion in serum at 2.33 nmol, ip administered as single dose in liposomal formulation and measured for 48 hrs by ELISA; assay type: functional, organism-based
[20] = system: B16-F10; assay: Antitumor activity against mouse B16-F10 cells implanted in C57BL/6 mouse assessed as reduction in number of metastatic nodules in lung at 0.58 nmol, ip administered as single dose in liposomal formulation for 1 day followed by tumor inoculation and measured after 3 weeks relative to control; assay type: functional; set-up: scale not given: the % may be the effect or the level left; settings: time 22 day
[21] = system: Splenocyte; assay: Cytotoxicity against C57BL/6 mouse splenocytes assessed as reduction in cell viability at 10 to 1000 nM treated as liposomal formulation measured after 72 hrs by MTT assay; assay type: toxicity, cell-based; settings: 1 µM, dose 10-1000 nM
[22] = system: Splenocyte; assay: as §1, with “proportion of IFN-gamma positive natural killer” for “CD86 expression on CD11c-positive dendritic”, “2.74%)” for “8.9%)”; assay type: functional
[23] = system: Splenocyte; assay: Induction of Th2-specific IL-4 secretion in C57BL/6 mouse splenocytes assessed as increase in IL-4 level in supernatant at 1 to 10 nM treated as liposomal formulation and measured after 72 hrs by ELISA; assay type: functional, cell-based; settings: dose 1-10 nM
[24] = system: Mus musculus; assay: Induction of Th1/2-balanced cytokine response in BALB/c mouse assessed as fold increase in IL-4 secretion in serum at 2.33 nmol, ip administered as single dose in liposomal formulation and measured after 6 to 48 hrs by ELISA; assay type: functional, organism-based; settings: time 6-48 hrs
[25] = system: Mus musculus; assay: Induction of Th1/2-balanced cytokine response in BALB/c mouse assessed as fold increase in IL-4 secretion in serum at 2.33 nmol, ip administered as single dose in liposomal formulation and measured after 2 hrs by ELISA relative to control; assay type: functional
[26] = system: Mus musculus; assay: Induction of Th1/2-balanced cytokine response in BALB/c mouse assessed as fold increase in IFN-gamma secretion in serum at 2.33 nmol, ip administered as single dose in liposomal formulation and measured after 24 hrs by ELISA relative to control; assay type: functional

| Structure (SMILES) | Activity [2] | fold change (FC) [4] | Activity [6] | Activity [7] [%] | Activity [8] | Activity [9] [%] | Activity [10] | Activity [11] | fold change (FC) [12] | Activity [13] | Activity [14] | Activity [15] | Activity [16] | Activity [18] | Activity [19] | Activity [20] [%] | Activity [21] | Activity [22] [%] | Activity [23] | further results |
| --- | --- | --- | --- | --- | --- | --- | --- | --- | --- | --- | --- | --- | --- | --- | --- | --- | --- | --- | --- | --- |
| CCCCCCCCCCCCCC[C@@H](O)[C@@H](O)[C@H](CO[C@H]1O[C@H](CO)[C@H](O)[C@H](O)[C@H]1O)NC(=O)CCCCCCCCCCNS(=O)(=O)CCCCCCCCCCCCC | Active | 7.7 | Active | 44.6 | Active | 32.9 | Active | Active | 9.6 | Active | Active | inactive | Active | inactive | Active | 82 | Non-Toxic | 11.2 | inactive | Activity [1]: Active; inhibition (INH) [3]: ~100%; Activity [5]: Active; Activity [17]: Active |
| CCCCCCCCCCCCCC[C@@H](O)[C@@H](O)[C@H](CO[C@H]1O[C@H](CO)[C@H](O)[C@H](O)[C@H]1O)NC(=O)CCCCCCCCCCCNS(=O)(=O)CCCCCCCCCCCC | Active | 4.7 | Active | 46.8 | Active | 33.9 | Active | Active | 6.2 | Active | Active | inactive | Active | inactive | Active | 66 | Non-Toxic | 12 | inactive | Activity [24]: inactive; fold change (FC) [25]: 4.7; fold change (FC) [26]: 7 |
| CCCCCCCCCCCCCC[C@@H](O)[C@@H](O)[C@H](CO[C@H]1O[C@H](CO)[C@H](O)[C@H](O)[C@H]1O)NC(=O)CCCCCCCCCCCCCNS(=O)(=O)CCCCCCCCCC |  |  |  |  |  |  |  |  |  |  |  | inactive |  | inactive |  |  | Non-Toxic |  |  |  |
| CCCCCCCCCCCCCC[C@@H](O)[C@@H](O)[C@H](CO[C@H]1O[C@H](CO)[C@H](O)[C@H](O)[C@H]1O)NC(=O)CCCCCCCCCNS(=O)(=O)CCCCCCCCCCCCCC |  |  |  |  |  |  |  |  |  |  |  | inactive |  | inactive |  |  | Non-Toxic |  |  |  |
| CCCCCCCCCCCCCC[C@@H](O)[C@@H](O)[C@H](CO[C@H]1O[C@H](CO)[C@H](O)[C@H](O)[C@H]1O)NC(=O)CCCCCCCCCCCCNS(=O)(=O)CCCCCCCCCCC |  |  |  |  |  |  |  |  |  |  |  | inactive |  | inactive |  |  | Non-Toxic |  |  |  |
| CCCCCCCCCCCCCCCCCCCCCCCCCC(=O)N[C@@H](CO[C@H]1O[C@H](CO)[C@H](O)[C@H](O)[C@H]1O)[C@H](O)[C@H](O)CCCCCCCCCCCCCC [RGI-7000] |  |  |  | 32 |  | 27.6 | Active |  |  |  |  | inactive |  | inactive |  |  | Non-Toxic | 6.11 |  |  |
